According to US10227357B2, “Compounds and methods for kinase modulation, and indications therefor” (Plexxikon Inc., priority 2012, dated 2019):

These compounds were tested against T1, c-kit mutant D816V (Homo sapiens, UniProt P10721, D816V/DEL694-753) (assay: c-Kit mutant D816V biochemical assay, AlphaScreen). Details: c-kit D816V biochemical inhibitory activity; read-out: Biochemical activity (IC50 μM) Kit D816V.
T1 construct: residues 551-934, kinase insertion domain residues 694-753 deleted; 6x-histidine (N); made in house; host or cells: E. coli Arctic Express (DE3) RIL (Stratagene)
T1 sequence (P10721 with tags, fused parts or gaps DEL694-753/D816V): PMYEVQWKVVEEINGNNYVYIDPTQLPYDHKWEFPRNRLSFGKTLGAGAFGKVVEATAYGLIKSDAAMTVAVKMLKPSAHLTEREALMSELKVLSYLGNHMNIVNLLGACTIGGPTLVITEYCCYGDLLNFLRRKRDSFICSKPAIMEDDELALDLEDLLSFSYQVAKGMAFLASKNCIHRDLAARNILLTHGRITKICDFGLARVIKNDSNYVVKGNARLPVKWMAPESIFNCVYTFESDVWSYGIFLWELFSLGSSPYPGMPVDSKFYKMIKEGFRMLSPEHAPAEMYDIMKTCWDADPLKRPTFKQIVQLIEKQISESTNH
Method: Compounds to be tested were dissolved in DMSO to a concentration of 20 mM. These were diluted 30 μl into 120 μl of DMSO (4 mM) and 1 μl was added to an assay plate. These were then serially diluted 1:3 (50 μl to 100 μl DMSO) for a total of 8 points. Plates were prepared such that each kinase reaction is 20 μl in 1× kinase buffer (25 mM HEPES, pH 7.2, 8 mM MgCl2, 2 mM MnCl2, 50 mM NaCl, 0.01% Brij, 1 mM DTT, 0.01% BSA), 5% DMSO and 10 μM ATP. […] After incubation of the kinase reaction for 30 minutes at room temperature, 5 μl of donor beads (Streptavidin coated beads (Perkin Elmer Life Science) final concentration 7.5 μg/ml) in stop buffer (25 mM Hepes pH 7.5, 100 mM EDTA, 0.01% BSA) was added, the sample was mixed and incubated for 20 minutes at room temperature before adding 5 μl of acceptor beads (PY20 coated beads (Perkin Elmer Life Science) final concentration 7.5 μg/ml) in stop buffer. The samples were incubated for 60 minutes at room temperature and the signal per well was read on EnVision reader. […] The signal vs. compound concentration was used to determine the IC50.
Cells were grown in Terrific Broth (TB) media to an OD600 of 0.6 at 37° C. at which temperature was reduced to 10° C., protein was induced with 1.0 mM IPTG for 18 hours and harvested by centrifugation at 8000×g for 20 minutes. Cells were re-suspended in 0.1M KPO4 pH 8.0, 250 mM NaCl, 10% Glycerol, 0.75% NP-40, 25 mM Imidazole, 5 mM BME with 0.2 mg/ml Lysosyme, 2.0 mM PMSF, 25 μg/ml DNAse I, incubated in ice for 30 minutes and lysed with a cell disruptor (MicroFluidics). The lysate was clarified by centrifugation at 20,000×g for 2 hours. The protein was captured with Talon resin (Clontech). Contaminating proteins were washed off with 25 mM Tris-HCl pH 8.3, 250 mM NaCl, 15% Glycerol, 1% Triton X-100, and protein eluted using 100 mM EDTA. The protein was further purified using Gel Filtration column 26/600 Superdex 200 (GE) in 50 mM Tris-HCl, pH 8.0, 250 mM NaCl, 15% Glycerol, 5 mM BME. The protein was aliquoted and flash-frozen in liquid Nitrogen.
Work on `COc1ccc(CNC(=O)N2CCN(c3ncnc4[nH]c(-c5ccc(F)cc5)cc34)CC2)cn1` [P-0129, 4-[6-(4-fluorophenyl)-7H-pyrrolo[2,3-d]pyrimidin-4-yl]-N-[(6-methoxy-3-pyridyl)methyl]piperazine-1-carboxamide] yielded an IC50 of 0.0001 to 1 µM.
With `O=C(NCc1ccc(Cl)cc1)N1CCN(c2ncnc3[nH]c(C4CC4)cc23)CC1` [P-0138, N-[(4-chlorophenyl)methyl]-4-(6-cyclopropyl-7H-pyrrolo[2,3-d]pyrimidin-4-yl)piperazine-1-carboxamide] the IC50 was 0.0001 to 1 µM.
With `O=C(NCc1ccc(Cl)cc1)N1CCN(c2ncnc3[nH]c(Cl)cc23)CC1` [P-0139, N-[(4-chlorophenyl)methyl]-4-(6-chloro-7H-pyrrolo[2,3-d]pyrimidin-4-yl)piperazine-1-carboxamide] the IC50 was 1 to 10 µM.
In the case of `COc1ncc(F)cc1CNC(=O)N1CCN(c2ncnc3[nH]c(-c4cccnc4)cc23)CC1` [P-0140, N-[(5-fluoro-2-methoxy-3-pyridyl)methyl]-4-[6-(3-pyridyl)-7H-pyrrolo[2,3-d]pyrimidin-4-yl]piperazine-1-carboxamide], the IC50 is reported as 1 to 10 µM.
Work on `Cc1ccc(NS(=O)(=O)N2CCN(c3ncnc4[nH]c(-c5ccc(Cl)cc5)cc34)CC2)cc1` [P-0142, 4-[6-(4-chlorophenyl)-7H-pyrrolo[2,3-d]pyrimidin-4-yl]-N-(p-tolyl)piperazine-1-sulfonamide] yielded an IC50 of 10 to 200 µM.
With `O=C(NC(=O)N1CCN(c2ncnc3[nH]c(-c4ccc(F)cc4)cc23)CC1)c1ccccc1` [P-0143, N-benzoyl-4-[6-(4-fluorophenyl)-7H-pyrrolo[2,3-d]pyrimidin-4-yl]piperazine-1-carboxamide] the IC50 was 1 to 10 µM.
Work on `COc1ccc([C@@H](C)NC(=O)N2CCN(c3ncnc4[nH]c(-c5ccc(F)cc5)cc34)CC2)cc1` [P-0145] yielded an IC50 of 10 to 200 µM.
`C[C@@H](NC(=O)N1CCN(c2ncnc3[nH]c(-c4ccc(F)cc4)cc23)CC1)c1ccc(F)cc1` [P-0146, N-[(1R)-1-(4-fluorophenyl)ethyl]-4-[6-(4-fluorophenyl)-7H-pyrrolo[2,3-d]pyrimidin-4-yl]piperazine-1-carboxamide] was tested, and the IC50 was 10 to 200 µM.
With `C[C@@H](NC(=O)N1CCN(c2ncnc3[nH]c(-c4ccc(F)cc4)cc23)CC1)c1ccc(F)cc1` [P-0147, N-[(1R)-1-(4-fluorophenyl)ethyl]-4-[6-(4-fluorophenyl)-7H-pyrrolo[2,3-d]pyrimidin-4-yl]piperazine-1-carboxamide] the IC50 was 1 to 10 µM.
Compound `O=C(NC1CCCC1)N1CCN(c2ncnc3[nH]c(-c4ccc(F)cc4)cc23)CC1` [P-0148, N-cyclopentyl-4-[6-(4-fluorophenyl)-7H-pyrrolo[2,3-d]pyrimidin-4-yl]piperazine-1-carboxamide] has an IC50 of 10 to 200 µM.
`O=C(Nc1cccnc1)N1CCN(c2ncnc3[nH]ccc23)CC1` [P-0152, N-(3-pyridyl)-4-(7H-pyrrolo[2,3-d]pyrimidin-4-yl)piperazine-1-carboxamide] gave an IC50 of 0.0001 to 1 µM.
`Cc1ccccc1C(=O)c1c[nH]c2ncnc(N3CCN(C(=O)NCc4ccc(F)cc4)CC3)c12` [P-0160, N-[(4-fluorophenyl)methyl]-4-[5-(2-methylbenzoyl)-7H-pyrrolo[2,3-d]pyrimidin-4-yl]piperazine-1-carboxamide] was tested, and the IC50 was 1 to 10 µM.
For `O=C(NCCc1ccc(Cl)cc1)N1CCN(c2ncnc3[nH]c(-c4ccc(F)cc4)cc23)CC1` [P-0161, N-[2-(4-chlorophenyl)ethyl]-4-[6-(4-fluorophenyl)-7H-pyrrolo[2,3-d]pyrimidin-4-yl]piperazine-1-carboxamide], the IC50 was 0.0001 to 1 µM.
Work on `O=C(NCCc1ccccc1)N1CCN(c2ncnc3[nH]c(-c4ccc(F)cc4)cc23)CC1` [P-0162, 4-[6-(4-fluorophenyl)-7H-pyrrolo[2,3-d]pyrimidin-4-yl]-N-phenethyl-piperazine-1-carboxamide] yielded an IC50 of 10 to 200 µM.
Compound `O=C(NCc1cccc(F)c1)N1CCN(c2ncnc3[nH]ccc23)CC1` [P-0163, N-[(3-fluorophenyl)methyl]-4-(7H-pyrrolo[2,3-d]pyrimidin-4-yl)piperazine-1-carboxamide] has an IC50 of 10 to 200 µM.
